From patent publication US6444467B1, “Process for production and subsequent ex vitro sowing and propagation of pre-germinated plant somatic embryos” (Cellfor Inc., priority 1998, dated 2002)

Tested on: spruce somatic embryos
Test: ex vitro re-germination of desiccated, pre-germinated spruce somatic embryos after ABA treatment
Type: in vivo
Conditions: 90 min in darkness
Source text: Somatic embryos of interior spruce (Picea glauca (Moench) Voss x P. engelmannii Parry ex Engelm.) lines I-1026, and 10-1418 were produced and dried with a high-relative-humidity treatment (HRHT) according to the methods of Roberts et al. (1990a; 1990b) and Webster et al. (1990).
Two groups of dried embryos for each of the two genotypes, were germinated on Whatman #1 filter paper on a thin layer of cotton in polycarbonate boxes. The liquid germination medium was modified GMD medium (NH4^+—N/NO3^−—N ratio was 1.4; phosphate concentration was 6 mM; 3% sucrose). After the embryos were sown onto the filter paper, the liquid level in the germination boxes was adjusted to provide a liquid film surrounding the surface of embryos situated at the interface with the solid support. The boxes were sealed with Parafilm and placed in a controlled environment room with the temperature maintained at a constant 23° C.
The first group of somatic embryos was germinated for 7 days after which, the polycarbonate boxes containing the germinants were transferred into refrigerated storage (i.e., temperatures were within a range of 8-12° C.) for 72 hours. The germinants were then removed from the cold treatment and subsequently received the various ABA treatments described below. The germinants which received the cold treatment are hereafter referred to as “stored germinants” .
This group of germinants is referred to hereafter as “fresh germinants”.
The stored and fresh germinants of each genotype were carefully paired into four groups, on wetted paper towel disks in separate 10 cm Petri dishes and received four ABA treatments, said ABA treatments being concentrations of 0, 5, 10, 20 μM, respectively. The ABA treatments were applied in darkness for 90 min.
After the completion of the ABA treatments, the somatic germinants were blot-dried on paper towels. The germinants were then transferred to fresh 5 cm Petri dish. The dishes, two per drying chamber, were placed in drying chambers containing a saturated KCl solution, which provided an atmospheric humidity of 85% RH over the liquid surface in a sealed chamber at 20° C. The somatic germinants were dried for 24 hr in a refrigerated room maintained between 5-8° C. after which, the drying chambers were transferred into a controlled environment room maintained at 20° C. for another 15 h.
The dried germinants were sown into 288-cavity miniplug trays (TLC Polyform Inc,. Plymouth Minn., USA, 55441) filled with a peat-based soilless mix comprised of 60% peat and 40% coarse horticultural vermiculite. Each germinant type of each genotype in each ABA treatment was randomly sown into 5 minitrays in blocks of 20 germinants. After sowing, the germinants were covered with a thin layer of coir (1993 Crystal Co., St. Louis, Mo., USA). The trays were wrapped in black plastic bags for 18 hrs to allow slow rehydration of germinants. Then, the trays were misted with a modified GMD nutrient solution (Webster et al., 1990) containing 3% sucrose until the soilless mix and coir became well wetted. The trays were placed in two misting chambers in a controlled environment germination room under light reduced by a 50% shade cloth for the first week. The shade cloth was removed at the end of the first week and the germinants were exposed to a light intensity of 180 μmol m^−2s^−1 photosynthetic photon flux. The chambers were frequently misted to keep the soilless mix moistened. Modified GMD solution with 3% sucrose was sprayed onto the germinants daily. After 7 days, germinants were fertilized weekly with 20-20-20 fertilizer (Plant Products Ltd., Brampton, ON, Canada) to deliver the equivalent of 100 ppm N.

In the case of CC1=CC(=O)CC(C)(C)[C@@]1(O)/C=C/C(C)=C\C(=O)O [ABA, abscisic acid], the “Re-germination success (%)” value (genotype 10-1418, "fresh" germinants, ABA 5 μM) was 53.8%, the “Re-germination success (%)” value (genotype 10-1418, "fresh" germinants, ABA 10 μM) was 16.6% and the “Re-germination success (%)” value (genotype 10-1418, "fresh" germinants, ABA 20 μM) was 29.8%. The “Re-germination success (%)” value (genotype 10-1418, "stored" germinants, ABA 5 μM) was 59.8%, the “Re-germination success (%)” value (genotype 10-1418, "stored" germinants, ABA 10 μM) was 57.5% and the “Re-germination success (%)” value (genotype 10-1418, "stored" germinants, ABA 20 μM) was 60.0%. For the same molecule, the “Re-germination success (%)” value (genotype I-1026, "fresh" germinants, ABA 5 μM) was 35.0%, the “Re-germination success (%)” value (genotype I-1026, "fresh" germinants, ABA 10 μM) was 53.3% and the “Re-germination success (%)” value (genotype I-1026, "fresh" germinants, ABA 20 μM) was 48.2%. The “Re-germination success (%)” value (genotype I-1026, "stored" germinants, ABA 5 μM) was 71.8%, the “Re-germination success (%)” value (genotype I-1026, "stored" germinants, ABA 10 μM) was 74.3% and the “Re-germination success (%)” value (genotype I-1026, "stored" germinants, ABA 20 μM) was 73.5%.
